“Also recorded” adds a separate entry of the source.
Experiments:
Akt = test: Immunoblot for phosphoAKT in spinal cord cultures; type: cell-based, rat
src-family kinases (SFK) = test: Immunoblot for active SFKs (clone 28 antibody) in spinal cord cultures; type: cell-based, rat; details: 24 hours treatment
Method: Cells were lysed in 1% NP-40 lysis buffers containing protease inhibitors, subjected to SDS-PAGE and immunoblotted as previously described (Fryer et al., 1999; Fryer et al., 2000). For immunoprecipitation, lysates from 60 mm dishes were pre-cleared by incubation with protein A beads (Santa Cruz), incubated with primary antibody (4 μg/ml)×2 hours then 50 μL of beads added and incubated overnight with gentle agitation at 4° C. Beads were pelleted, washed 5× with 10 mM Tris pH 7.4+0.5 mM EGTA+0.5 mM EDTA+0.1% NP40 before elution in 1× Laemelli sample buffer. Antibody sources: BD Transduction Labs—TrkB and MAP Kinase used at 1:500, Cell Signaling—Akt 1:1000; phosphoTrk (tyr490) 1:1000; phospho p42/44 MAP Kinase (thr 202/tyr204) 1:1000; phosphoAkt (ser473) 1:500; IGFI antibody (tyr 1131) 1:500. Upstate—adenosine A2a 1:1000. Sigma—actin 1:200. Biosource—active src (clone 28) 1:200.
The precise mechanism by which G-protein coupled receptors trans-activate receptor tyrosine kinases is complex and to some extent receptor-subtype specific (Luttrell et al., 1999; Downward, 2003; Piiper and Zeuzem, 2004; Waters et al., 2004). […] If this pathway was operative in spinal cord neurons, then antagonism of adenosine A2a receptors might lead to reduced src activation and antagonism of SFKs might be neuro-protective. Src is negatively regulated by phosphorylation of tyrosine 529 (refers to human src sequence) and an antibody that recognizes a de-phospho epitope in this region (“clone 28”) is a reliable measure of active src and SFKs (Kawakatsu et al., 1996). We began by asking for adenosine A2a receptors and active SFKs are present in the same cells and if so, their subcellular distribution. Pure motor neurons, grown in the presence of BDNF were immunostained with a rabbit anti-adenosine A2a receptor and the clone 28 antibody. One hundred percent of motor neurons expressed both antigens and on dendrites, the immunoreactivity formed discrete fine puncta (FIG. 5a). Many, but not all, puncta were stained with both antibodies. […]

[1] = test system: motor neurons expressing G85R SOD; test: Motor neuron death from HSV-expressed mutant SOD in spinal cord cultures; type: cell-based, rat; details: 6 days post-infection; treatment daily or every other day
Excerpt: Various cDNAs were cloned into the PrpUC amplicon plasmid and were used to generate recombinant HSV as previously described (Neve et al., 1997). The titer of viruses used in these studies were routinely 3-5×10^7 plaque-forming units/ml. The cDNA for wild type/mutant SOD and wild type/mutant p150^glued were gifts of D. Borchelt and E. Holzbaur, respectively. The K295R mutant version of chick src was a gift of J. Brugge.
Mutations in superoxide dismutase (SOD) or the p150^glued subunit of dynactin are known to account for a familial form of ALS in a subpopulation of individuals (Rosen, 1993; Puls et al., 2003; Bruijn et al., 2004). We inquired whether expression the mutant forms of SOD or p150^glued caused motor neuron death in vitro and if Trk antagonism was neuroprotective. Recombinant herpes simplex viruses (HSVs) were generated that expressed wild type or mutant form of SOD (G85R) and wild type or mutant p150^glued (G59S). […] Spinal cord cultures were infected with virus at 14 DIV and the number of motor neurons was determined 2, 4, 6 or 8 days later (FIG. 4, panel a.).
We next determined if KW6002 could protect motor neurons from the toxic effects of mutant proteins. Spinal cord cultures were infected with viruses expressing wild type or mutant versions of SOD or p150^glued at 14 DIV, then treated with drug or vehicle for 4 days (FIG. 4, panel b.). […]

[2] = Robeva et al.; cited from earlier work

Method for purified motor neurons: Embryonic Sprague-dawley rat spinal cord neurons were grown on previously established cortical astrocyte monolayers as previously described (Hu and Kalb, 2003). Briefly, the cerebral cortex of postnatal day (P) 1-3 rat pups was dissociated and plated on tissue culture plastic (Primeria) or laminin/polylysine coated glass overslips and maintained in Minimal Essential Media (10% horse serum, 10% fetal bovine serum) and 10 μM AraC was added for 1 day to arrest further proliferation when confluent. Under these conditions, no cortical neurons are present in these cultures. […]
The media was removed (and saved), cells were exposed to 100 μM kainic acid or vehicle in Locke's buffer for one hour, washed three times in Locke's buffer not containing kainic acid and the original media restored to each dish (Hu and Kalb, 2003). […] To quantify the number of stained cells, we counted the number of labeled cells from three non-overlapping fields using a 5× objective on a Zeiss upright Axioskop microscope and the value from one coverslip was averaged. […] When cell body diameter was assessed in select experiments, a reticule was introduced into an eye piece and the length of the long axis of a neuron noted. […]

CCCn1c(=O)[nH]c(=O)c2[nH]cnc21 [enprofylline, 3-propylxanthine]
abundance of phosphoAKT (Akt; 6 and 24 hours, 100 μM enprofylline, 30 nM CEP-4416): decrease in the abundance of phosphoAKT and phosphoMAPK at 6 and 24 hours | phosphorylation of Akt (Akt; 6 hours post drug administration): decreases in the phosphorylation of Trk, MAP kinase and Akt | abundance of phosphoAKT (Akt; 24 hours post drug administration): robust reduction in phosphoTrk, phosphoMAPK and phosphoAKT | abundance of phosphoAKT (Akt; 48 hours post drug administration): remained depressed | abundance of active SFKs (src-family kinases (SFK)): reduced | abundance of active SFKs (src-family kinases (SFK); listed as Enprofylline): caused a reduction in the abundance of active SFKs | % motor neuron death after excitotoxic insult (purified motor neurons; 24 hours pre-treatment, grown in BDNF+CT1): 3±1% | death of motor neurons after kainic acid (purified motor neurons; pre-treated for 24 hrs): No death of motor neurons occurred | motor neuron survival / toxicity of G85R SOD [1]: significantly greater number of motor neurons; also recorded: completely prevented the toxicity of mutant protein expression | bioavailability [2]: good
